Measured values published in paper PMC6277767, “Broad and Region-Specific Impacts of the Synthetic Cannabinoid CP 55,940 in Adolescent and Adult Female Mouse Brains” (Frontiers in Molecular Neuroscience, 2018).

System: CD1 female mouse brain lipidome
Test: Brain-region lipid levels (HPLC/MS/MS lipidomics) 2 h after single i.p. 3 mg/kg CP 55,940 vs vehicle
Format: in vivo
Experimental: The Bloomington Institutional Animal Care and Use Committee of Indiana University reviewed and approved the animal procedures. Female mice from the CD1 strain were utilized to match our study examining THC’s effects on the brain lipidome ([Leishman et al., 2018]). Mice were given a single i.p. injection of either 3 mg/kg CP or 1:1:18 cremophor:ethanol:saline vehicle (please refer to the section “3 mg/kg CP Is Relevant for Synthetic Cannabinoid Abuse and Has Stronger Effects on the Female Mouse Brain Lipidome During Adolescence” for a justification of dose and use of female mice). Three different age groups were given injections: PND 35 and PND 50 adolescents, and adult mice (PND 113). At least eight mice in each age group received CP and at least eight received vehicle. Matching the THC study time course ([Leishman et al., 2018]), mice were sacrificed via rapid decapitation 2 h after injection. Brains were immediately removed and flash-frozen in liquid nitrogen, and then stored at -80°C until dissections were performed. Brains were dissected on an ice-cold dissection plate into the following regions: STR, HIPP, CER, THAL, CTX, HYP, MID, and STEM. These abbreviations for these brain areas will be used exclusively when discussing the results generated by these specific dissections. Each dissected area was immediately placed in liquid nitrogen and then stored at -80°C until used for lipid extraction.
Tissue extracts were performed as previously described ([Bradshaw et al., 2006]; [Stuart et al., 2013]; [Raboune et al., 2014]; [Leishman et al., 2016a],[b], [2017], [2018]). First, samples were shock frozen in liquid nitrogen, weighed, and transferred to a centrifuge tube. The mass of the largest sample was multiplied by 50 to determine how many milliliters of HPLC-grade methanol (Fisher, Fair Lawn, NJ, United States) to add. Then, samples were spiked with 500 pmol deuterium-labeled NAGly (d8NAGly; Cayman Chemical, Ann Arbor, MI, United States). Samples were placed on ice in darkness for 2 h then individually homogenized and centrifuged at 19,000 × g for 20 min at 20°C. Supernatants were diluted with HPLC water (purified in house) to make a solution of 75% water, 25% supernatant. Lipids were partially purified on C18 solid phase extraction columns (Agilent, Palo Alto, CA, United States). A series of four elutions with 1.5 mL of 60%, 75%, 85%, and 100% methanol were collected ([Stuart et al., 2013]; [Leishman et al., 2016a],[b], [2018]).
As previously described ([Bradshaw et al., 2006]; [Tan et al., 2006]; [Smoum et al., 2010]; [Stuart et al., 2013]; [Tortoriello et al., 2013]; [Raboune et al., 2014]; [Leishman et al., 2016a],[b], [2017], [2018]), samples were analyzed using an Applied Biosystems API 3000 triple quadrupole mass spectrometer with electrospray ionization (Foster City, CA, United States). Using an Agilent XDB-C18 reversed phase analytical column and optimized mobile phase gradients, 20 μL from each elution were chromatographed. Two Shimadzu 10ADvp pumps (Columbia, MD, United States) provided the pressure for gradient elution. Mobile phase A: 20% methanol, 80% water (v/v) and 1 mM ammonium acetate (Sigma, St. Louis, MO, United States). Mobile phase B: 100% methanol, 1 mM ammonium acetate. Every method run began with 0% mobile phase B, reached 100% mobile phase B flowing at 0.2 mL/min, and gradually returned to 0% mobile phase B.
This screening library will be referred to as the lipidome when discussing data from this study. HPLC/MS/MS data were analyzed using Analyst software (Applied Biosystems) ([Bradshaw et al., 2006]; [Tan et al., 2006]; [Stuart et al., 2013]; [Tortoriello et al., 2013]; [Raboune et al., 2014]; [Leishman et al., 2016a],[b], [2017], [2018]). Chromatograms (Supplementary Figure 3) were generated by determining the retention time of analytes from the analytical column with a [M-1] or [M+1] parent peak and a fragmentation peak corresponding to the programmed values. […]

[1] = PND 35 midbrain, 3mg/kg, one-way ANOVA

`CCCCCCC(C)(C)c1ccc([C@@H]2C[C@H](O)CC[C@H]2CCCO)c(O)c1` [CP 55,940] was tested, and the “N-docosahexaenoyl methionine: Magnitude (x Veh level)” value (PND 35 midbrain, 3mg/kg) was 0.77 x Veh level, the “N-docosahexaenoyl serine: Magnitude (x Veh level)” value (PND 35 midbrain, 3mg/kg) was 0.77 x Veh level and the “N-docosahexaenoyl tyrosine: Magnitude (x Veh level)” value (PND 35 midbrain, 3mg/kg) was 0.79 x Veh level. The “N-docosahexaenoyl valine: Magnitude (x Veh level)” value (PND 35 midbrain, 3mg/kg) was 1.67 x Veh level, the “N-linoleoyl ethanolamine: Magnitude (x Veh level)” value (PND 35 midbrain, 3mg/kg) was 1.24 x Veh level and the “N-oleoyl GABA: Magnitude (x Veh level)” value (PND 35 midbrain, 3mg/kg) was 0.81 x Veh level. For the same compound, the “N-oleoyl ethanolamine: Magnitude (x Veh level)” value (PND 35 midbrain, 3mg/kg) was 0.85 x Veh level, the “N-oleoyl phenylalanine: Magnitude (x Veh level)” value (PND 35 midbrain, 3mg/kg) was 1.11 x Veh level and the “N-oleoyl valine: Magnitude (x Veh level)” value (PND 35 midbrain, 3mg/kg) was 1.48 x Veh level. For the same compound, the “N-palmitoyl leucine: Magnitude (x Veh level)” value (PND 35 midbrain, 3mg/kg) was 1.40 x Veh level, the “N-palmitoyl phenylalanine: Magnitude (x Veh level)” value (PND 35 midbrain, 3mg/kg) was 1.31 x Veh level and the “N-palmitoyl valine: Magnitude (x Veh level)” value (PND 35 midbrain, 3mg/kg) was 1.83 x Veh level. The “N-stearoyl methionine: Magnitude (x Veh level)” value (PND 35 midbrain, 3mg/kg) was 1.15 x Veh level, the “N-stearoyl tyrosine: Magnitude (x Veh level)” value (PND 35 midbrain, 3mg/kg) was 0.82 x Veh level and the “N-stearoyl valine: Magnitude (x Veh level)” value (PND 35 midbrain, 3mg/kg) was 1.40 x Veh level. For the same compound, the “PGE2: Magnitude (x Veh level)” value (PND 35 midbrain, 3mg/kg) was 1.15 x Veh level, the “PGF2α: Magnitude (x Veh level)” value (PND 35 midbrain, 3mg/kg) was 1.22 x Veh level and the “phoshoLEA: Magnitude (x Veh level)” value (PND 35 midbrain, 3mg/kg) was 1.41 x Veh level. For the same compound, the “2-linoleoyl glycerol: Direction (rel to Veh)” value [1] was “↓”, the “6-ketoPGF1α: Direction (rel to Veh)” value [1] was “↓” and the “Arachidonic acid: Direction (rel to Veh)” value [1] was “↓”. The “N-arachidonoyl GABA: Direction (rel to Veh)” value [1] was “↓”, the “N-arachidonoyl alanine: Direction (rel to Veh)” value [1] was “↓” and the “N-arachidonoyl glycine: Direction (rel to Veh)” value [1] was “↓”. For the same compound, the “N-arachidonoyl serine: Direction (rel to Veh)” value [1] was “↓”, the “N-arachidonoyl taurine: Direction (rel to Veh)” value [1] was “↓” and the “N-arachidonoyl tyrosine: Direction (rel to Veh)” value [1] was “↓”. For the same compound, the “N-docosahexaenoyl GABA: Direction (rel to Veh)” value [1] was “↓”, the “N-docosahexaenoyl alanine: Direction (rel to Veh)” value [1] was “↓” and the “N-docosahexaenoyl glycine: Direction (rel to Veh)” value [1] was “↓”. The “N-docosahexaenoyl leucine: Direction (rel to Veh)” value [1] was “↑”, the “N-docosahexaenoyl methionine: Direction (rel to Veh)” value [1] was “↓” and the “N-docosahexaenoyl serine: Direction (rel to Veh)” value [1] was “↓”. For the same compound, the “N-docosahexaenoyl tyrosine: Direction (rel to Veh)” value [1] was “↓”, the “N-docosahexaenoyl valine: Direction (rel to Veh)” value [1] was “↑” and the “N-linoleoyl ethanolamine: Direction (rel to Veh)” value [1] was “↑”. For the same compound, the “N-oleoyl GABA: Direction (rel to Veh)” value [1] was “↓”, the “N-oleoyl ethanolamine: Direction (rel to Veh)” value [1] was “↓” and the “N-oleoyl phenylalanine: Direction (rel to Veh)” value [1] was “↑”. The “N-oleoyl valine: Direction (rel to Veh)” value [1] was “↑”, the “N-palmitoyl leucine: Direction (rel to Veh)” value [1] was “↑” and the “N-palmitoyl phenylalanine: Direction (rel to Veh)” value [1] was “↑”. For the same compound, the “N-palmitoyl valine: Direction (rel to Veh)” value [1] was “↑”, the “N-stearoyl methionine: Direction (rel to Veh)” value [1] was “↑” and the “N-stearoyl tyrosine: Direction (rel to Veh)” value [1] was “↓”. The “N-stearoyl valine: Direction (rel to Veh)” value [1] was “↑”, the “PGE2: Direction (rel to Veh)” value [1] was “↑” and the “PGF2α: Direction (rel to Veh)” value [1] was “↑”. The “phoshoLEA: Direction (rel to Veh)” value [1] was “↑”, the 2-arachidonoyl-sn-glycerol mean level (PND 35 striatum) was 8.26E-11 moles per gram and the 2-linoleoyl-sn-glycerol mean level (PND 35 striatum) was 6.79E-11 moles per gram. The 2-oleoyl-sn-glycerol mean level (PND 35 striatum) was 6.52E-10 moles per gram, the 2-palmitoyl-sn-glycerol mean level (PND 35 striatum) was 3.66E-10 moles per gram and the 6-ketoPGF1α mean level (PND 35 striatum) was 5.31E-12 moles per gram. The “Arachidonic acid mean level” value (PND 35 striatum) was 1.87E-09 moles per gram, the “Linoleic acid mean level” value (PND 35 striatum) was 4.78E-10 moles per gram and the “N- stearoyl valine mean level” value (PND 35 striatum) was 4.54E-13 moles per gram. The “N-arachidonoyl GABA mean level” value (PND 35 striatum) was 7.34E-12 moles per gram, the “N-arachidonoyl alanine mean level” value (PND 35 striatum) was 7.95E-12 moles per gram and the “N-arachidonoyl ethanolamine mean level” value (PND 35 striatum) was 1.25E-11 moles per gram. For the same compound, the “N-arachidonoyl glycine mean level” value (PND 35 striatum) was 2.49E-11 moles per gram, the “N-arachidonoyl phenylalanine mean level” value (PND 35 striatum) was 5.08E-13 moles per gram and the “N-arachidonoyl serine mean level” value (PND 35 striatum) was 2.14E-12 moles per gram. The “N-arachidonoyl taurine mean level” value (PND 35 striatum) was 4.32E-11 moles per gram, the “N-arachidonoyl tyrosine mean level” value (PND 35 striatum) was 3.18E-13 moles per gram and the “N-docosahexaenoyl GABA mean level” value (PND 35 striatum) was 7.6E-13 moles per gram. The “N-docosahexaenoyl alanine mean level” value (PND 35 striatum) was 3E-12 moles per gram, the “N-docosahexaenoyl ethanolamine mean level” value (PND 35 striatum) was 1.6E-11 moles per gram and the “N-docosahexaenoyl glycine mean level” value (PND 35 striatum) was 1.04E-11 moles per gram. For the same compound, the “N-docosahexaenoyl leucine mean level” value (PND 35 striatum) was 5.34E-13 moles per gram, the “N-docosahexaenoyl phenylalanine mean level” value (PND 35 striatum) was 5.57E-13 moles per gram and the “N-docosahexaenoyl serine mean level” value (PND 35 striatum) was 9.97E-12 moles per gram. The “N-linoleoyl alanine mean level” value (PND 35 striatum) was 1.57E-12 moles per gram, the “N-linoleoyl ethanolamine mean level” value (PND 35 striatum) was 3.02E-11 moles per gram and the “N-linoleoyl glycine mean level” value (PND 35 striatum) was 1.9E-12 moles per gram. For the same compound, the “N-linoleoyl serine mean level” value (PND 35 striatum) was 4.58E-11 moles per gram, the “N-oleoyl GABA mean level” value (PND 35 striatum) was 1.45E-12 moles per gram and the “N-oleoyl alanine mean level” value (PND 35 striatum) was 6.67E-12 moles per gram. The “N-oleoyl ethanolamine mean level” value (PND 35 striatum) was 6.1E-11 moles per gram, the “N-oleoyl glycine mean level” value (PND 35 striatum) was 1.1E-11 moles per gram and the “N-oleoyl leucine mean level” value (PND 35 striatum) was 1.08E-12 moles per gram. The “N-oleoyl methionine mean level” value (PND 35 striatum) was 9.72E-13 moles per gram, the “N-oleoyl phenylalanine mean level” value (PND 35 striatum) was 6.72E-13 moles per gram and the “N-oleoyl serine mean level” value (PND 35 striatum) was 2.35E-10 moles per gram. For the same compound, the “N-oleoyl tyrosine mean level” value (PND 35 striatum) was 1.91E-13 moles per gram, the “N-oleoyl valine mean level” value (PND 35 striatum) was 3.53E-13 moles per gram and the “N-palmitoyl GABA mean level” value (PND 35 striatum) was 3.96E-12 moles per gram. For the same compound, the “N-palmitoyl alanine mean level” value (PND 35 striatum) was 1.47E-11 moles per gram, the “N-palmitoyl ethanolamine mean level” value (PND 35 striatum) was 3.18E-11 moles per gram and the “N-palmitoyl glycine mean level” value (PND 35 striatum) was 2.93E-11 moles per gram. The “N-palmitoyl leucine mean level” value (PND 35 striatum) was 2.54E-12 moles per gram, the “N-palmitoyl methionine mean level” value (PND 35 striatum) was 1.86E-12 moles per gram and the “N-palmitoyl phenylalanine mean level” value (PND 35 striatum) was 1.48E-12 moles per gram. For the same compound, the “N-palmitoyl proline mean level” value (PND 35 striatum) was 1.03E-12 moles per gram, the “N-palmitoyl serine mean level” value (PND 35 striatum) was 3.33E-11 moles per gram and the “N-palmitoyl tryptophan mean level” value (PND 35 striatum) was 2.09E-13 moles per gram. For the same compound, the “N-palmitoyl tyrosine mean level” value (PND 35 striatum) was 3.84E-13 moles per gram, the “N-palmitoyl valine mean level” value (PND 35 striatum) was 9.76E-13 moles per gram and the “N-stearoyl GABA mean level” value (PND 35 striatum) was 3.5E-12 moles per gram. For the same compound, the “N-stearoyl alanine mean level” value (PND 35 striatum) was 1.12E-11 moles per gram, the “N-stearoyl ethanolamine mean level” value (PND 35 striatum) was 9E-12 moles per gram and the “N-stearoyl glycine mean level” value (PND 35 striatum) was 1.64E-11 moles per gram.
